# Activity calls are given as the source filed them. The calls are words filed in the database; no cut-off is given here.
# Columns and labels:
# [1] = Blockade of protein farnesyltransferase at 100 uM by aggregate-based inhibition assay
# [2] = Blockade of protein farnesyltransferase by aggregate-based inhibition assay
# [3] = Inhibition of protein farnesyltransferase by continuous fluorescence assay
# [4] = tested on: MDCK; assay: Inhibition of protein farnesyltransferase-mediated farnesylation of GFP-tagged H-Ras protein overexpressed in MDCK cells assessed as inhibition of protein localization into golgi and plasma membrane at 25 uM after 24 hrs by Hoechst 34580 staining-based confocal microscopy; format: cell-based
# [5] = tested on: MDCK; assay: Inhibition of protein farnesyltransferase-mediated farnesylation of GFP-tagged H-Ras protein overexpressed in MDCK cells assessed as inhibition of protein localization into golgi and plasma membrane at 10 uM after 48 hrs by Hoechst 34580 staining-based confocal microscopy; format: cell-based
# [6] = tested on: MDCK; assay: Cytotoxicity against MDCK cells at >10 uM; format: cell-based, Canis lupus familiaris; conditions: dog
IC50 [3],SMILES,Activity [2],also measured
–,Clc1ccccc1C(c1ccccc1)(c1ccccc1)n1ccnc1,–,Activity [1]: inactive
–,O=C1OC(c2ccc(O)cc2)(c2ccc(O)cc2)c2c(I)c(I)c(I)c(I)c21,inactive,–
–,Clc1ccc(COC(Cn2ccnc2)c2ccc(Cl)cc2Cl)cc1 (stereo not given),Active,–
> 200 µM,CC(C)C[C@H](NC(=O)[C@@H](O)[C@H](N)Cc1ccccc1)C(=O)O [UBENIMEX],–,–
76 µM,Cc1cncc(CN2CCC(=C3c4ccc(Cl)cc4CCc4cccnc43)CC2)c1 [RUPATADINE],–,–
–,Clc1ccc(COC(Cn2ccnc2)c2ccc(Cl)cc2Cl)c(Cl)c1 (stereo not given) [MICONAZOLE],Active,Activity [5]: Active; Activity [6]: Toxic

SMILES,IC50 [3],Activity [2],also measured
CCOC(=O)N1CCC(=C2c3ccc(Cl)cc3CCc3cccnc32)CC1 [LORATADINE],13.3 µM,–,Activity [4]: inactive

# — ChEMBL document CHEMBL1157633, “Prediction and evaluation of protein farnesyltransferase inhibition by commercial drugs” (J Med Chem, 2010)
